We go through 1 compound from patent US20120269725A1, “TARGETED RADIOLABELED COMPOUNDS AND THEIR USE FOR THE TREATMENT AND DIAGNOSIS OF CANCER” (priority 2009, published 2012).

For data set [1], the system named is subcutaneous LS174T tumors (human colorectal adenocarcinoma). In words: Biodistribution, clearance and planar imaging in athymic mice bearing subcutaneous LS174T xenografts. The class given is in vivo, athymic NCr-nu/nu mice. As to conditions: for tumor uptake and retention, times higher than parent drug ^131IUdR: co-injected ^131IUdR. As for the experimental part: The in vivo properties and pharmacology of several compounds of the present invention were initially tested in athymic mice bearing subcutaneous LS174T tumors (human colorectal adenocarcinoma), which have several desirable properties such as rapid growth when implanted subcutaneously (SQ), good vascularization and the availability of considerable historical data for the parent compound IUdR. The clearance rates from blood, tumor, and associated organs were analyzed to determine the structure-pharmacokinetics relationship. The first compounds studied were 6b-fast and 6b-slow. Four-to-six-weeks old female athymic NCr-nu/nu mice (NCI-Frederic, Md., USA) were allowed to acclimate in Applicants' facility after delivery for no less than 5 days. All protocols involving animals were approved by the University of Nebraska Institutional Animal Care and Use Committee. Mice were housed in microisolator cages with free access to sterilized standard rodent diet and water. LS174T cells in 0.1 mL of serum-free medium were implanted SQ at 5×10^6 cells/mouse. One week later identification transponders were implanted, also SQ. Body weights and tumor sizes were monitored twice weekly, and approximately 10 days after the cell implant, mice were randomized for biodistribution studies.
Each of the two isomers, 6b-fast and 6b-slow, was tested independently in separate groups of mice. The comparison to the parent compound, IUdR, was made by co-injecting ^131IUdR with a particular ^125I-labeled diastereomer. Compounds were administered intravenously (IV) via a tail vein.
Biodistribution was conducted at 1 h, 4 h, 24 and 48 h after the administration of radiolabeled compounds (n=6 per time point). The injection doses contained approximately 1 μCi (37 kBq) ^131IUdR and 5 μCi (185 kBq) ^125I-labeled 6b-fast or 6b-slow dissolved in 0.2 mL phosphate buffered saline containing 0.1% bovine serum albumin, pH 7.2 (PBS). All syringes were weighted after loading with the compound solution and immediately after the injection to determine the weight of the injected dose. Triplicate standards of the injected dose were prepared in PBS and counted in a gamma counter just before the beginning of the experiment. The radioactive content of these standards was also determined alongside all tissues after the necropsy to correct the tissue uptake for the decay of the radioisotope. Blood, liver, spleen, heart, lungs, kidneys, brain, tumor and tail were collected during necropsy. Tissues were rinsed in ice-cold saline, patted dry and weighed. The tail was collected to validate the quality of the IV injections.
FIG. 7 presents whole body images for a typical time course distribution (24 h, 48 h, and 72 h) of 6b administered as a diastereomeric mixture in LS174T-bearing athymic mice. The images were acquired 1, 2, and 3 days after the administration of the compound. […] It is also apparent that based on pharmacokinetics, the use of these compounds can be tailored to a specific malignancy and its anatomical location.

The subject of a further data set is IP OVCAR-3 tumors. The experiment in a line: Pilot therapy of IP OVCAR-3 tumors in athymic mice. It is filed as in vivo. The text has this: In pilot therapy experiments, the effects of unmodified ^125IUdR on the growth of IP OVCAR-3 tumors were compared to the therapeutic effects of the 6b diastereomeric mixture and 7b diastereomeric mixture. The tumor model used in this study, OVCAR-3 cell line, was established from the malignant ascites of a patient with progressive adenocarcinoma of the ovary after many types of chemotherapy including cyclophosphamide, adriamycin, and cisplatin. OVCAR-3 is resistant in vitro to clinically relevant concentrations of adriamycin, melphalan, and cisplatin (Hamilton T C, Young R C, Louie K G, Behrens B C, McKoy W M, Grotzinger K R, Ozols R F. Characterization of a xenograft model of human ovarian carcinoma which produces ascites and intraabdominal carcinomatosis in mice. Cancer Res. 1984; 44:5286-90.). In immunodeficient mice, IP injected OVCAR-3 cells produce malignant ascites, peritoneal carcinomatosis, and serosal and visceral seeding that, if left untreated, leads to death from respiratory compromise, hemorrhage from invasion of intra-abdominal blood vessels, and bowel obstruction. Substantial literature data (nearly 100 publications) confirm that this tumor model has pathogenesis and metastatic properties similar to those of human ovarian cancer.
Mice received IP implants of approximately 2.4×10^8 OVCAR-3 cells/mouse isolated from fresh OVCAR-3 mouse ascites. Cell viability was measured before and after injection, and was ≧90%. Four days after tumor cells were implanted, the mice received SQ transponders and were randomized via a lottery into four groups: NT—untreated controls that received IP injection of PBS; 7b group—receiving IP doses of the 7b diastereomeric mixture in PBS (average 0.4 mCi/mouse (14.8 MBq)); 6b group—receiving IP doses of the 6b diastereomeric mixture in PBS (average dose 0.36 mCi/mouse (13.3 MBq)); and ^125IUdR group—receiving IP doses of ^125IUdR (average 0.43 mCi/mouse (15.9 MBq)) in PBS. Mice were monitored three times per week.
Mice in the 6b group received 0.22 mCi (8.1 MBq) 6b diastereomeric mixture on day 27; and on day 28 mice in ^125IUdR group were treated with additional 0.2 mCi (7.4 MBq) ^125IUdR. Slight differences in the dosing schedule and the administered doses are because of the required large quantities of the compounds. For these experiments, ˜20 mCi of no-carrier added and radiochemically pure compounds were required. Each agent was purified on the analytical reversed phase HPLC column. The use of preparative columns in this case is impractical because the products are recovered in large volumes of acetonitrile-containing solvent that must be evaporated to dryness before the use in mice.
Overall, mice in the 7b group were treated with an average of 0.58 mCi (21.5 MBq) 7b diastereomeric mixture; mice in the 6b group were treated with an average of 0.58 mCi (21.5 MBq) 6b diastereomeric mixture, and mice in the ^125IUdR group were treated with an average of 0.63 mCi (23.3 MBq) ^125IUdR.
The therapy was terminated 7 weeks after the first dosing. Mice were sacrificed for the biodistribution study. Blood and solid tumor were taken for the evaluation of their radioactive content. The peritoneal cavity was lavaged with 2-mL aliquots of PBS, and PBS wash and ascites were collected. One mL of the ascites suspension with cancer cells was taken for gamma counting. The rest of the abdominal fluid was centrifuged and 0.5 mL of the supernatant was reserved for gamma counting. The weight of the cell pellet and the supernatant were determined.
Two weeks after the first dose of radiolabeled compounds, the whole body radioactivity was measured to determine to what extent the additional doses of the compounds may increase the radiation burden and therefore may be detrimental to the animal health (FIG. 11B). The absolute amounts were low and ranged from […] for the 6b group to […] in the 7b group. […]

Data set [2] relates to U-87 human glioblastoma cells. The experiment in a line: Clonogenic assay in U-87 cells. The class given is cell-based. The note with it: 24 h treatment at 0.5 to 5 μCi/mL; 100 and 500 cells/flask; monitored 7 weeks. As for the experimental part:
U-87 cells were plated for 24 h before treatment and then treated for 24 h with concentrations of 6b fast and 6b slow ranging from 0.5 μCi/mL to 5 μCi/mL (18.5 to 185 kBq/mL). Cells were harvested, washed, and their numbers counted using a Cellometer® cell counter. Cells were diluted in fresh medium. Cells from each concentration of 6b fast and 6b slow were plated in three T25 flasks at two densities, 100 cells/flask and 500 cells/flask. Control cells were sham-treated with PBS and processed in a manner identical to cells treated with 6b. Cells were periodically examined and fresh medium was added every 5-7 days. Three weeks after plating, media was removed from the control flasks, cells were washed with 5 mL ice-cold PBS, followed by 5 mL PBS/methanol (1:1; v/v), and fixed in 5 mL methanol for 10 minutes. The methanol was discarded and flasks were left open to dry for a few hours. Crystal violet (5 mL; 0.25% in 1:1 PBS/methanol) was added to each flask to stain the cells. After approximately 10 min, the dye was removed and flasks were rinsed first with tap water followed by distilled water and were left to dry. […] This finding indicates the extraordinarily effective killing of U-87 cells by 6b.

As for `O=c1[nH]c(=O)n([C@H]2C[C@H](O)[C@@H](COP3(=O)OCc4ccccc4O3)O2)cc1[125I]` (some centres unmarked) [Compound 6b, 5-[^125I]-Iodo-5′-O-cycloSaligenyl-2′-deoxyuridine Monophosphate], the figures for the “tumor uptake and retention, times higher than parent drug ^131IUdR” value in data set [1] (24 hours after IV administration) and in data set [1] (48 hours after IV administration) were roughly 14 × and roughly 7 ×, respectively. Further, the “clearance of normal organs versus tumor (whole body images)” value in data set [1] (diastereomeric mixture, images 24 h, 48 h, 72 h after IV administration) is on record as “normal organs such as liver clear the compound at a much faster rate than the tumor”. For the same compound, the “whole body retention, median” value in the data set with IP OVCAR-3 tumors (after 14 days) is on record as 1.89 % ID. Besides, the whole body retention with IP OVCAR-3 tumors (after 14 days, value with spread in brackets) is given as 1.87 (0.16) % ID. In the data set with IP OVCAR-3 tumors (diastereomeric mixtures IP, total average 0.58 mCi, 7 weeks after first dose), the “reduction in solid tumor deposits as compared to ^125IUdR” value is on record as roughly 50%. For the same compound, in the data set on IP OVCAR-3 tumors (necropsy 4 weeks after the boost dose), the “tumor retention compared to ^125IUdR” value is recorded as “significantly higher compared to ^125IUdR”. In addition, in data set [2], the colony formation entry was “colonies were not formed”.
